Source: patent publication US10441663B2, “Methods for treating cancer” (Bicycle Therapeutics Limited, priority 2016, dated 2019)
*1 amine or outer side, *2 acyl side, *3 side chain or, on linkers, in order; H or OH if unused. Where a SMILES comes first, the peptide text is derived from it. Bridges are numbered along the chain shown (N, C = ends). [ ]: non-standard residue; d: D form. The star is where a group is joined. X1 = COc1cc2cc(c1Cl)N(C)C(=O)C[C@H](OC(=O)[C@H](C)N(C)C(=O)CCSSC(C)CCC(=O)*)[C@]1(C)O[C@H]1[C@H](C)[C@@H]1C[C@@](O)(NC(=O)O1)[C@H](OC)/C=C/C=C(\C)C2; 1Nal = N[C@@H](Cc1cccc2ccccc12)C(=O)O; TBMB = c1c(C[*:1])cc(C[*:3])cc1C[*:2]; Tle = CC(C)(C)[C@H](N)C(=O)O; βAla = NCCC(=O)O; Sar = CNCC(=O)O

Tested on: HT1080 xenograft
Test: In vivo efficacy of BT1718 in HT1080 xenograft
Design: species or system Mus Musculus; key to Best response at 10 mg/kg: CR complete response; PR partial response
Description: The objective of this study was to evaluate the in vivo anti-tumor efficacy of BT1718in treatment of HT1080, NCI-H292, NCI-H1975, MDA-MB-231, HCC1806, RPMI2650, HCT-15, HT-29 and SNU-16 xenograft in BALB/c nude mice.
The HT1080, NCI-H292, NCI-H1975, MDA-MB-231, HCC1806, RPMI2650, HCT-15, HT-29 and SNU-16 tumor cells were maintained in vitro as a monolayer culture in medium supplemented with 10% heat inactivated fetal bovine serum at 37° C. in an […]. The tumor cells will be routinely subcultured twice weekly by trypsin-EDTA treatment. The cells growing in an exponential growth phase will be harvested and counted for tumor inoculation.
Mouse was inoculated subcutaneously at the right flank with tumor cells for tumor development. The animals were randomized and treatment was started when the average tumor reaches certain volume for the efficacy study, the inoculating cell amounts and starting tumor size were shown as below in Table 9. The test article administration and the animal numbers in each group were shown in the experimental design in Table 10.
All the procedures related to animal handling, care and the treatment in the study were performed according to the guidelines of the Association for Assessment and Accreditation of Laboratory Animal Care (AAALAC). At the time of routine monitoring, the animals were daily checked for any effects of tumor growth and treatments on normal behavior such as mobility, food and water consumption (by looking only), body weight gain/loss (body weights were measured every day), eye/hair matting and any other abnormal effect as stated in the protocol. Death and observed clinical signs were recorded on the basis of the numbers of animals within each subset.
The major endpoint was to see if the tumor growth could be delayed or mice could be cured. Tumor size was measured three times weekly in two dimensions using a caliper, and the volume was expressed in mm^3 using the formula: V=0.5 a×b^2 where a and b are the long and short diameters of the tumor, respectively. The tumor size was then used for calculations of T/C value. The T/C value (in percent) is an indication of antitumor effectiveness; T and C are the mean volumes of the treated and control groups, respectively, on a given day.
TGI was calculated for each group using the formula: TGI (%)=[1−(Ti−T0)/(Vi−V0)]×100; Ti is the average tumor volume of a treatment group on a given day, T0 is the average tumor volume of the treatment group on the day of treatment start, Vi is the average tumor volume of the vehicle control group on the same day with Ti, and V0 is the average tumor volume of the vehicle group on the day of treatment start.
Summary statistics, including mean and the standard error of the mean (SEM), are provided for the tumor volume of each group at each time point.
Statistical analysis of difference in tumor volume among the groups was conducted on the data obtained at the best therapeutic time point after the final dose.
A one-way ANOVA was performed to compare tumor volume among groups, and when a significant F-statistics (a ratio of treatment variance to the error variance) was obtained, comparisons between groups were carried out with Games-Howell test. All data were analyzed using Prism. P<0.05 was considered to be statistically significant.

## COc1cc2cc(c1Cl)N(C)C(=O)C[C@H](OC(=O)[C@H](C)N(C)C(=O)CCSSC(C)CCC(=O)NCCC(=O)N(C)CC(=O)N(C)CC(=O)N(C)CC(=O)N(C)CC(=O)N(C)CC(=O)N(C)CC(=O)N(C)CC(=O)N(C)CC(=O)N(C)CC(=O)N(C)CC(=O)N[C@@H](C)C(=O)N[C@H]1CSCc3cc4cc(c3)CSC[C@H](NC(=O)[C@@H](C)NC(=O)[C@H](Cc3cccc5ccccc35)NC(=O)[C@H](CCC(=O)O)NC(=O)[C@H](CC(N)=O)NC(=O)[C@@H](C)NC1=O)C(=O)N[C@@H](CCC(=O)O)C(=O)N[C@@H](CC(=O)O)C(=O)N[C@@H](Cc1ccccc1)C(=O)N[C@@H](Cc1ccc(O)cc1)C(=O)N[C@@H](CC(=O)O)C(=O)N[C@@H](C(C)(C)C)C(=O)N[C@H](C(N)=O)CSC4)[C@]1(C)O[C@H]1[C@H](C)[C@@H]1C[C@@](O)(NC(=O)O1)[C@H](OC)/C=C/C=C(\C)C2 (stereo partly drawn) [BT1718] ({X1-βAla}-[Sar][Sar][Sar][Sar][Sar][Sar][Sar][Sar][Sar][Sar]AC[dA]NE[1Nal][dA]CEDFYD[Tle]C-NH2; linker 12-18-25 via TBMB (inferred))
3 mg/kg biw
  animals with transient response on re-dosing: 1/3
3 mg/kg biw re-dosing
  animals that ultimately re-grew despite dosing: 3/3
10 mg/kg biw, suspension period of 2 months
  re-growth during dosing suspension: did not re-grow
10 mg/kg qw, re-growth in weeks 3-4 of re-dosing
  response on re-dosing of the relapsed animal: transient response
1 mpk biw, day 0
  Body Weight: 22.7 ± 0.5 g
  Tumor Volume: 177 ± 6 mm^3
1 mpk biw, day 2
  Body Weight: 22.2 ± 0.4 g
  Tumor Volume: 265 ± 33 mm^3
1 mpk biw, day 4
  Body Weight: 22.3 ± 0.2 g
  Tumor Volume: 669 ± 107 mm^3
1 mpk biw, day 7
  Body Weight: 22.2 ± 0.2 g
  Tumor Volume: 1009 ± 156 mm^3
1 mpk biw, day 9
  Body Weight: 21.5 ± 0.2 g
  Tumor Volume: 1318 ± 146 mm^3
1 mpk biw, day 11
  Body Weight: 20.1 ± 0.1 g
  Tumor Volume: 1526 ± 160 mm^3
1 mpk biw, day 14
  Body Weight: 19.4 ± 0.0 g
  Tumor Volume: 1650 ± 218 mm^3
1 mpk qw, day 0
  Body Weight: 22.5 ± 0.6 g
  Tumor Volume: 178 ± 4 mm^3
1 mpk qw, day 2
  Body Weight: 22.2 ± 0.5 g
  Tumor Volume: 257 ± 26 mm^3
1 mpk qw, day 4
  Body Weight: 22.6 ± 0.5 g
  Tumor Volume: 627 ± 112 mm^3
1 mpk qw, day 7
  Body Weight: 22.3 ± 0.3 g
  Tumor Volume: 934 ± 176 mm^3
1 mpk qw, day 9
  Body Weight: 22.2 ± 0.3 g
  Tumor Volume: 1253 ± 182 mm^3
1 mpk qw, day 11
  Body Weight: 20.5 ± 0.3 g
  Tumor Volume: 1593 ± 251 mm^3
1 mpk qw, day 14
  Body Weight: 19.6 ± 0.2 g
  Tumor Volume: 1814 ± 320 mm^3
3 mpk biw, day 0
  Body Weight: 23.1 ± 0.6 g
  Tumor Volume: 178 ± 15 mm^3
3 mpk biw, day 2
  Body Weight: 22.8 ± 0.9 g
  Tumor Volume: 196 ± 16 mm^3
3 mpk biw, day 4
  Body Weight: 22.5 ± 0.7 g
  Tumor Volume: 100 ± 10 mm^3
3 mpk biw, day 7
  Body Weight: 23.4 ± 0.8 g
  Tumor Volume: 39 ± 8 mm^3
3 mpk biw, day 9
  Body Weight: 24 ± 1.1 g
  Tumor Volume: 18 ± 10 mm^3
3 mpk biw, day 11
  Body Weight: 24.5 ± 0.9 g
  Tumor Volume: 8 ± 8 mm^3
3 mpk biw, day 14
  Body Weight: 24.7 ± 0.9 g
  Tumor Volume: 3 ± 3 mm^3
3 mpk qw, day 0
  Body Weight: 22.6 ± 0.3 g
  Tumor Volume: 179 ± 18 mm^3
3 mpk qw, day 2
  Body Weight: 21.4 ± 0.2 g
  Tumor Volume: 191 ± 17 mm^3
3 mpk qw, day 4
  Body Weight: 21.8 ± 0.8 g
  Tumor Volume: 183 ± 90 mm^3
3 mpk qw, day 7
  Body Weight: 22.0 ± 1.1 g
  Tumor Volume: 218 ± 149 mm^3
3 mpk qw, day 9
  Body Weight: 21.3 ± 0.7 g
  Tumor Volume: 266 ± 142 mm^3
3 mpk qw, day 11
  Body Weight: 21.4 ± 0.5 g
  Tumor Volume: 254 ± 125 mm^3
3 mpk qw, day 14
  Body Weight: 21.0 ± 0.6 g
  Tumor Volume: 306 ± 119 mm^3
10 mpk biw, day 0
  Body Weight: 22.5 ± 1.0 g
  Tumor Volume: 180 ± 21 mm^3
10 mpk biw, day 2
  Body Weight: 21.8 ± 1.2 g
  Tumor Volume: 182 ± 41 mm^3
10 mpk biw, day 4
  Body Weight: 21.8 ± 1.1 g
  Tumor Volume: 58 ± 14 mm^3
10 mpk biw, day 7
  Body Weight: 22.7 ± 0.9 g
  Tumor Volume: 32 ± 7 mm^3
10 mpk biw, day 9
  Body Weight: 22.1 ± 0.9 g
  Tumor Volume: 27 ± 14 mm^3
10 mpk biw, day 11
  Body Weight: 22 ± 1.1 g
  Tumor Volume: 26 ± 13 mm^3
10 mpk biw, day 14
  Body Weight: 22.6 ± 1.0 g
  Tumor Volume: 20 ± 11 mm^3
10 mpk qw, day 0
  Body Weight: 22.6 ± 1.2 g
  Tumor Volume: 179 ± 14 mm^3
10 mpk qw, day 2
  Body Weight: 21.1 ± 1.2 g
  Tumor Volume: 146 ± 19 mm^3
10 mpk qw, day 4
  Body Weight: 22.1 ± 1.2 g
  Tumor Volume: 35 ± 4 mm^3
10 mpk qw, day 7
  Body Weight: 23.2 ± 1.0 g
  Tumor Volume: 25 ± 3 mm^3
10 mpk qw, day 9
  Body Weight: 22.7 ± 1.1 g
  Tumor Volume: 15 ± 8 mm^3
10 mpk qw, day 11
  Body Weight: 23.8 ± 1.3 g
  Tumor Volume: 5 ± 5 mm^3
10 mpk qw, day 14
  Body Weight: 24.8 ± 1.5 g
  Tumor Volume: 5 ± 5 mm^3
HT1080, 10 mg/kg
  Best response at 10 mg/kg: CR
HT1080, 1 mpk, biw, day 14
  TGI: 26.5%
  Tumor Volume: 1650 ± 218 mm^3
HT1080, 1 mpk, qw, day 14
  TGI: 18.4%
  Tumor Volume: 1814 ± 320 mm^3
HT1080, 3 mpk, biw, day 14
  TGI: 108.7%
  Tumor Volume: 3 ± 3 mm^3
HT1080, 3 mpk, qw, day 14
  TGI: 93.7%
  Tumor Volume: 306 ± 119 mm^3
HT1080, 10 mpk, biw, day 14
  TGI: 108.0%
  Tumor Volume: 20 ± 11 mm^3
HT1080, 10 mpk, qw, day 14
  TGI: 108.7%
  Tumor Volume: 5 ± 5 mm^3
HT1080, dose leading to tumor-stasis
  Minimally Effective Dose IV BIW: <3 mg/kg
After 2 weeks, 3 mg/kg biw, 10 mg/kg qw and 10 mg/kg biw
  tumor response: completely regressed
Previously 3 mg/kg biw
  animals with re-growth to 150 mm3 following cessation of dosing: 3/3
Previously 10 mg/kg qw
  animals with re-growth to 150 mm3 following cessation of dosing: 1/3
